Experimental data: patent publication US10071095B2, “1,2,4-triazolo [4,3-A] pyridine derivatives and their use for the treatment of neurological and psychiatric disorders” (JANSSEN PHARMACEUTICALS, INC., priority 2009, dated 2018)

The molecules below were run against T1, human mGluR2 receptor (Homo sapiens, UniProt Q14416) (assay: [35S]GTPγS binding assay, positive allosteric modulation (GTPγS-PAM) in presence of EC20 glutamate). Details: in presence of glutamate at EC20; average pEC50 if more experiments; ‡ means tested once.
T1 construct: expressed in transfected cells; host or cells: CHO cells
Type: biochemical
Description: [^35S]GTPγS Binding Assay
The [^35S]GTPγS binding assay is a functional membrane-based assay used to study G-protein coupled receptor (GPCR) function whereby incorporation of a non-hydrolysable form of GTP, [^35S]GTPγS (guanosine 5′-triphosphate, labelled with […] ^35S), is measured. The G-protein α subunit catalyzes the exchange of guanosine 5′-diphosphate (GDP) by guanosine triphosphate (GTP) and on activation of the GPCR by an agonist, [^35S]GTPγS, becomes incorporated and cannot be cleaved to continue the exchange cycle (Harper (1998) Current Protocols in Pharmacology 2.6.1-10, John Wiley & Sons, Inc.). […] Here we describe the use of the [^35S]GTPγS binding assay using membranes from cells transfected with the human mGluR2 receptor and adapted from Schaffhauser et al. ((2003) Molecular Pharmacology 4:798-810) for the detection of the positive allosteric modulation (PAM) properties of the compounds of this invention.
CHO-cells were cultured to pre-confluence and stimulated with 5 mM butyrate for 24 h, prior to washing in PBS, and then collected by scraping in homogenisation buffer (50 mM Tris-HCl buffer, pH 7.4, 4° C.). Cell lysates were homogenized briefly using an ultra-turrax homogenizer. The homogenate was centrifuged at 16,000 RPM (Sorvall RC-5C plus rotor SS-34) for 10 minutes and the supernatant discarded. The pellet was resuspended in 5 mM Tris-HCl, pH 7.4 and centrifuged again (18,000 RPM, 20 min, 4° C.). The final pellet was resuspended in 50 mM Tris-HCl, pH 7.4 and stored at −80° C. in appropriate aliquots before use. Protein concentration was determined by the Bradford method (Bio-Rad, USA) with bovine serum albumin as standard.
Measurement of mGluR2 positive allosteric modulatory activity of test compounds was performed as follows. Test compounds and glutamate were diluted in assay buffer containing 10 mM HEPES acid, 10 mM HEPES salt, pH 7.4, 100 mM NaCl, 3 mM MgCl2 and 10 μM GDP. Human mGlu2 receptor-containing membranes were thawed on ice and diluted in assay buffer supplemented with 14 μg/ml saponin. Membranes were pre-incubated with compound alone or together with a predefined (˜EC20) concentration of glutamate (PAM assay) for 30 min at 30° C. After addition of [^35S]GTPγS (f.c. 0.1 nM) microplates were shaken briefly and further incubated to allow [^35S]GTPγS incorporation on activation (30 minutes, 30° C.). Final assay mixtures contained 7 μg of membrane protein in 10 mM HEPES acid, 10 mM HEPES salt, pH 7.4, 100 mM NaCl, 3 mM MgCl2, 10 µM GDP and 10 μg/ml saponin. Total reaction volume was 200 μl. Reactions were terminated by rapid filtration through Unifilter-96 GF/B filter plates (Packard, Meriden, Conn.) using a 96-well Packard filtermate harvester. Filters were washed 6 times with ice-cold 10 mM NaH2PO4/10 mM Na2HPO4, pH 7.4. Filters were then air-dried, and 40 μl of liquid scintillation cocktail (Microscint-O) was added to each well. Membrane-bound radioactivity was counted in a Microplate Scintillation and Luminescence Counter from Packard.
The concentration-response curves of representative compounds of the present invention-obtained in the presence of EC20 of mGluR2 agonist glutamate to determine positive allosteric modulation (PAM)—were generated using the Lexis software interface (developed at J&J).

T1 sequence (Q14416 19-872): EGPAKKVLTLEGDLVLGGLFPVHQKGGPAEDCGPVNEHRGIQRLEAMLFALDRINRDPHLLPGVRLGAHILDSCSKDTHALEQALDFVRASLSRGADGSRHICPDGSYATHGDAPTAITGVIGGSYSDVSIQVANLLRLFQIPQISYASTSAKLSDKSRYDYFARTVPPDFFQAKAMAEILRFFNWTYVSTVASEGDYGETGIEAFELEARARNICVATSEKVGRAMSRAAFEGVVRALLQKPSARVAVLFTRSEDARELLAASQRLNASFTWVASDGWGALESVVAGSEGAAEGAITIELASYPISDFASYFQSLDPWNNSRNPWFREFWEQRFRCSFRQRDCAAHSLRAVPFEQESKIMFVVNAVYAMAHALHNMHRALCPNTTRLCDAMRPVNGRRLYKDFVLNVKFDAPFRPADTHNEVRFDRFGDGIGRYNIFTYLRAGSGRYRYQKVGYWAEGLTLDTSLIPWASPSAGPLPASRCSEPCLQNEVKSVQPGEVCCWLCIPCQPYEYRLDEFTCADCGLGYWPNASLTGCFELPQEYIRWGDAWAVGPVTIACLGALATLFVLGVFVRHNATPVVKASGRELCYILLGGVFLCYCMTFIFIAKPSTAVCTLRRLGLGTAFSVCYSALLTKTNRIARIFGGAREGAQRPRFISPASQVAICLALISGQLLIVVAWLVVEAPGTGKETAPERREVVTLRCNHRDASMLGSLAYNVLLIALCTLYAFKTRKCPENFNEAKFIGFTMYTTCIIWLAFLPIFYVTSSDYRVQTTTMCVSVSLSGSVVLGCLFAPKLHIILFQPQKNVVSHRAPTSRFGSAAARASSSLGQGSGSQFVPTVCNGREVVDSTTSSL

SMILES	GTPγS - hR2 PAM pEC50
FC(F)(F)c1c(N2CCC(F)(c3ccccc3)CC2)ccn2c(CC3CC3)nnc12 [compound 2, 3-Cyclopropylmethyl-7-(4-fluoro-4-phenyl-1-piperidinyl)-8-(trifluoromethyl)-1,2,4-triazolo[4,3-a]pyridine]	7.41
CCCCc1nnc2c(C(F)(F)F)c(N3CCC(c4ccccc4)CC3)ccn12 [compound 4, 3-Butyl-7-(4-phenyl-1-piperidinyl)-8-trifluoromethyl-1,2,4-triazolo[4,3-a]pyridine]	7.62
CCc1nnc2c(C#N)c(N3CCC(c4ccccc4)CC3)ccn12 [compound 10, 3-ethyl-7-(4-phenyl-1-piperidinyl)-1,2,4-triazolo[4,3-a]pyridine-8-carbonitrile]	6.16
N#Cc1c(N2CCC(c3ccccc3)CC2)ccn2c(CC3CC3)nnc12 [compound 13, 3-(cyclopropylmethyl)-7-(4-phenyl-1-piperidinyl)-1,2,4-triazolo[4,3-a]pyridine-8-carbonitrile]	7.13
N#Cc1c(N2CCC(c3ccccc3)CC2)ccn2c(CC(F)(F)F)nnc12 [compound 20]	7.25
CCc1nnc2c(C#N)c(N3CCC(c4cccc(F)c4OC)CC3)ccn12 [compound 21]	6.61
FC(F)(F)Cc1nnc2c(Cl)c(N3CCC(c4ccccc4)CC3)ccn12 [compound 22]	7.26
CCCc1nnc2c(C#N)c(N3CCC(c4cccc(F)c4OC)CC3)ccn12 [compound 23]	6.98
COCc1nnc2c(C#N)c(N3CCC(c4ccccc4)CC3)ccn12 [compound 24]	6.33‡
CCc1nnc2c(Cl)c(N3CCC(c4ccccc4)CC3)ccn12 [compound 25]	6.42
COc1c(F)cccc1C1CCN(c2ccn3c(CC(F)(F)F)nnc3c2C#N)CC1 [compound 27]	7.51
CCCc1nnc2c(C#N)c(N3CCC(c4ccccc4)CC3)ccn12 [compound 28]	6.53
N#Cc1c(N2CCC(c3ccccc3)CC2)ccn2c(C3(C(F)(F)F)CC3)nnc12 [compound 31]	6.27
N#Cc1c(N2CCC(c3ccccc3)CC2)ccn2c(COCc3ccccc3)nnc12 [compound 32]	7.03
CC(F)(F)c1nnc2c(C#N)c(N3CCC(c4ccccc4)CC3)ccn12 [compound 33]	5.15‡
N#Cc1c(N2CCC(c3ccccc3)CC2)ccn2c(CC3CCC3)nnc12 [compound 34]	7.35
CC(C)(C)c1nnc2c(C#N)c(N3CCC(c4ccccc4)CC3)ccn12 [compound 35]	5.91
N#Cc1c(N2CCC(c3ccccc3)CC2)ccn2c(CN3CCCC3)nnc12 [compound 36]	5.95‡
N#Cc1c(N2CCC(c3ccccc3)CC2)ccn2c(CN3CCC(C(F)(F)F)CC3)nnc12 [compound 37]	6.51
FC(F)(F)Cc1nnc2c(C(F)(F)F)c(N3CCC(c4ccccc4)CC3)ccn12 [compound 38]	7.74
FC(F)(F)c1cccc(C2CCN(c3ccn4c(CC5CC5)nnc4c3Cl)CC2)c1 [compound 39]	7.52
N#Cc1c(N2CCC(F)(c3ccccc3)CC2)ccn2c(CC3CC3)nnc12 [compound 40]	6.67
FC1(c2ccccc2)CCN(c2ccn3c(CC4CC4)nnc3c2Cl)CC1 [compound 42]	6.83
N#Cc1c(N2CCN(C3CCC(C(F)(F)F)CC3)CC2)ccn2c(CC3CC3)nnc12 (stereo not shown) [compound 45]	6.07‡

Now from value to molecule:

GTPγS - hR2 PAM pEC50	SMILES
7.05	FC(F)(F)c1c(N2CC3C(C2)C3c2ccccc2)ccn2c(CC3CC3)nnc12 (racemic) [compound 75]
6.85	FC(F)(F)Cc1nnc2c(Cl)c(N3CC4C(C3)C4c3ccccc3)ccn12 (racemic) [compound 81]
6.42‡	CCc1nnc2c(C)c(N3CC4C(C3)C4c3ccccc3)ccn12 (racemic) [compound 335]
7.42‡	CCCCc1nnc2c(C(F)(F)F)c(N3CC4C(C3)C4c3ccccc3)ccn12 (racemic) [compound 338]
7.06	CC1CN(c2ccn3c(CC4CC4)nnc3c2Cl)CCC1c1ccccc1 (single isomer, unassigned) [compound 208]
7.44	CC1CN(c2ccn3c(CC4CC4)nnc3c2Cl)CCC1c1ccccc1 (single isomer, unassigned) [compound 211]
8.08	CC1CN(c2ccn3c(CC4CC4)nnc3c2C(F)(F)F)CCC1c1ccccc1 (single isomer, unassigned) [compound 212]
6.9‡	Cc1cccnc1OC1CCN(c2ccn3c(CC4CC4)nnc3c2Cl)CC1 [compound 48]
8.35‡	COc1cccc(F)c1C1CCN(c2ccn3c(CC(F)(F)F)nnc3c2C#N)CC1 [compound 51]
6.98‡	N#Cc1c(N2CCN(Cc3ccc(OCC4CC4)c(Cl)c3)CC2)ccn2c(CC(F)(F)F)nnc12 [compound 52]
6.95	N#Cc1c(N2CCC(F)(c3ccccc3)CC2)ccn2c(CC(F)(F)F)nnc12 [compound 54]
8.22	COc1cccc(F)c1C1CCN(c2ccn3c(CC4CC4)nnc3c2Cl)CC1 [compound 55]
6.02‡	FC(F)(F)Cc1nnc2c(Cl)c(N3CCC(c4ccccn4)CC3)ccn12 [compound 56]
8.16‡	COc1cccc(F)c1C1CCN(c2ccn3c(CC4CC4)nnc3c2C#N)CC1 [compound 57]
6.23	N#Cc1c(N2CCN(C3CCC(C(F)(F)F)CC3)CC2)ccn2c(CC(F)(F)F)nnc12 (stereo not shown) [compound 58]
7.17	Cc1cccnc1OC1CCN(c2ccn3c(CC(F)(F)F)nnc3c2Cl)CC1 [compound 59]
6.33	N#Cc1c(N2CCN(Cc3cccc(C(F)(F)F)c3)CC2)ccn2c(CC(F)(F)F)nnc12 [compound 60]
7.98	COc1ccc(F)cc1C1CCN(c2ccn3c(CC(F)(F)F)nnc3c2Cl)CC1 [compound 61]
6.41	FC(F)(F)c1c(N2CCC(c3ccccc3)(N3CCOCC3)CC2)ccn2c(CC3CC3)nnc12 [compound 62]
6.08	FC(F)(F)Cc1nnc2c(Cl)c(N3CCN(c4ncccn4)CC3)ccn12 [compound 63]

Same assay, conditions: in presence of glutamate at EC20; average pEC50 if more experiments; ‡ means tested once; read-out: GTPγS - hR2 PAM pEC50 (converted)

EC50 [µM]	SMILES
0.132	CCOCc1nnc2c(Cl)c(N3CCC(c4ccccc4)CC3)ccn12 [compound 5, 8-Chloro-3-(ethoxymethyl)-7-(4-phenyl-1-piperidinyl)-1,2,4-triazolo[4,3-a]pyridine]
0.0398	CC(C)(O)c1ccccc1C1CCN(c2ccn3c(CC4CC4)nnc3c2Cl)CC1 [compound 7, 2-[1-[8-Chloro-3-(cyclopropylmethyl)-1,2,4-triazolo[4,3-a]pyridin-7-yl]-4-piperidinyl]-α,α-dimethyl-benzenemethanol]
0.269	CC(C)Cc1nnc2c(Cl)c(N3CCC(c4ccccc4)CC3)ccn12 [compound 9, 8-Chloro-3-(2-methylpropyl)-7-(4-phenyl-1-piperidinyl)-1,2,4-triazolo[4,3-a]pyridine]
0.0468	N#Cc1c(N2CCC(c3ccccc3)CC2)ccn2c(CN3CCC(c4ccccc4)CC3)nnc12 [compound 12, 7-(4-phenyl-1-piperidinyl)-3-[(4-phenyl-1-piperidinyl)methyl]-1,2,4triazolo[4,3-a]pyridine-8-carbonitrile]
0.427	N#Cc1c(N2CCC(c3ccccc3)CC2)ccn2c(C3CCC3)nnc12 [compound 14, 3-Cyclobutyl-7-(4-phenyl-1-piperidinyl)-1,2,4-triazolo[4,3-a]pyridine-8-carbonitrile]
